How the values were obtained:
[1] = tested on: IPOHE (Morningglory, Ivyleaf); test: Preemergence herbicidal evaluation; assay type: in vivo, Ipomoea hederacea; details: rated 4-5 weeks after treatment
In short: (§1)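 Sown cups got a single aqueous acetone spray of test compound (roughly 0.0156–0.500 kg/ha) before seedlings emerged. Evaluation, 4–5 weeks on, used a 0–9 visual scale covering plant stand, vigor, size, malformation, chlorosis and general appearance compared with controls.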

[2] = tested on: ZEAMX (Corn, Field); test: Postemergence herbicidal evaluation; assay type: in vivo, Zea mays; details: postemergence
In short: (§2)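 Each compound, dispersed in an acetone/water mix (50/50) carrying 0.5% TWEEN 20, is nozzle-sprayed at 40 psi on approximately two-week-old seedlings at about 0.0156–0.500 kg/ha. Plants are assessed 4–5 weeks afterward on a 0–9 scale relative to control; duplicate tests are averaged.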

[3] = tested on: ABUTH (Velvetleaf); test: Preemergence herbicidal evaluation; assay type: in vivo, Abutilon theophrasti; details: rated 4-5 weeks after treatment
In short: as §1

[4] = tested on: TRZAWR (Wheat, Winter, cv Riband); test: Preemergence herbicidal evaluation; assay type: in vivo, Triticum aestivum; details: rated 4-5 weeks after treatment
In short: as §1

[5] = tested on: ZEAMX (Corn, Field); test: Preemergence herbicidal evaluation; assay type: in vivo, Zea mays; details: rated 4-5 weeks after treatment
In short: as §1

[6] = tested on: CASOB (Sicklepod); test: Preemergence herbicidal evaluation; assay type: in vivo, Cassia obtusifolia; details: rated 4-5 weeks after treatment
In short: as §1

[7] = tested on: CHEAL (Lambsquarters, Common); test: Preemergence herbicidal evaluation; assay type: in vivo, Chenopodium album; details: rated 4-5 weeks after treatment
In short: as §1

[8] = tested on: GLXMAW (Soybean, Williams); test: Preemergence herbicidal evaluation; assay type: in vivo, Glycine max, (L.) Merr. cv Williams; details: rated 4-5 weeks after treatment
In short: as §1

[9] = tested on: ABUTH (Velvetleaf); test: Postemergence herbicidal evaluation; assay type: in vivo, Abutilon theophrasti; details: postemergence
In short: as §2

[10] = tested on: ECHCG (Barnyardgrass); test: Preemergence herbicidal evaluation; assay type: in vivo, Echinochloa crus-galli; details: rated 4-5 weeks after treatment
In short: as §1

[11] = tested on: SETVI (Foxtail, Green); test: Postemergence herbicidal evaluation; assay type: in vivo, Setaria viridis; details: postemergence
In short: as §2

[12] = tested on: IPOHE (Morningglory, Ivyleaf); test: Postemergence herbicidal evaluation; assay type: in vivo, Ipomoea hederacea; details: postemergence
In short: as §2

[13] = tested on: CHEAL (Lambsquarters, Common); test: Postemergence herbicidal evaluation; assay type: in vivo, Chenopodium album; details: postemergence
In short: as §2

[14] = tested on: ECHCG (Barnyardgrass); test: Postemergence herbicidal evaluation; assay type: in vivo, Echinochloa crus-galli; details: postemergence
In short: as §2

[15] = tested on: ORYSAT (Rice, Tebonnet); test: Postemergence herbicidal evaluation; assay type: in vivo, Oryza sativa, (L.) Tebonnet; details: postemergence
In short: as §2

## CCOC(=O)CN1C(=O)C(C(=O)OCC)SC1=Nc1cc(-n2c(=O)cc(C(F)(F)F)n(C)c2=O)c(F)cc1Cl (centres unmarked) [Compound 127, 5-Carboxy-2-{{2-chloro-5-[3,6-dihydro-3-methyl-2,6-dioxo-4-(trifluoromethyl)-1(2H)-pyrimidinyl]-4-fluorophenyl}imino}-4-oxo-3-thiazolidineacetic acid, diethyl ester]
[1]; rate 0.0313 kg/ha
  Preemergence herbicidal rating IPOHE: 0.0
[1]; rate 0.0625 kg/ha
  Preemergence herbicidal rating IPOHE: 0.0
[1]; rate 0.1250 kg/ha
  Preemergence herbicidal rating IPOHE: 1.0
[1]; rate 0.2500 kg/ha
  Preemergence herbicidal rating IPOHE: 9.0
[1]; rate 0.5000 kg/ha
  Preemergence herbicidal rating IPOHE: 9.0
[2]; rate 0.0156 kg/ha
  herbicidal rating ZEAMX: 4.5
[2]; rate 0.0313 kg/ha
  herbicidal rating ZEAMX: 4.5
[2]; rate 0.0625 kg/ha
  herbicidal rating ZEAMX: 7.0
[2]; rate 0.1250 kg/ha
  herbicidal rating ZEAMX: 8.0
[3]; rate 0.0313 kg/ha
  Preemergence herbicidal rating ABUTH: 7.0
[3]; rate 0.0625 kg/ha
  Preemergence herbicidal rating ABUTH: 7.0
[3]; rate 0.1250 kg/ha
  Preemergence herbicidal rating ABUTH: 9.0
[3]; rate 0.2500 kg/ha
  Preemergence herbicidal rating ABUTH: 9.0
[3]; rate 0.5000 kg/ha
  Preemergence herbicidal rating ABUTH: 9.0
[4]; rate 0.0313 kg/ha
  Preemergence herbicidal rating TRZAWR: 0.0
[4]; rate 0.0625 kg/ha
  Preemergence herbicidal rating TRZAWR: 0.0
[4]; rate 0.1250 kg/ha
  Preemergence herbicidal rating TRZAWR: 0.0
[4]; rate 0.2500 kg/ha
  Preemergence herbicidal rating TRZAWR: 0.0
[4]; rate 0.5000 kg/ha
  Preemergence herbicidal rating TRZAWR: 7.0
[5]; rate 0.0313 kg/ha
  Preemergence herbicidal rating ZEAMX: 0.0
[5]; rate 0.0625 kg/ha
  Preemergence herbicidal rating ZEAMX: 0.0
[5]; rate 0.1250 kg/ha
  Preemergence herbicidal rating ZEAMX: 0.0
[5]; rate 0.2500 kg/ha
  Preemergence herbicidal rating ZEAMX: 4.0
[5]; rate 0.5000 kg/ha
  Preemergence herbicidal rating ZEAMX: 8.0
[6]; rate 0.0313 kg/ha
  Preemergence herbicidal rating CASOB: 0.0
[6]; rate 0.0625 kg/ha
  Preemergence herbicidal rating CASOB: 0.0
[6]; rate 0.1250 kg/ha
  Preemergence herbicidal rating CASOB: 0.0
[6]; rate 0.2500 kg/ha
  Preemergence herbicidal rating CASOB: 2.0
[6]; rate 0.5000 kg/ha
  Preemergence herbicidal rating CASOB: 6.0
[7]; rate 0.0313 kg/ha
  Preemergence herbicidal rating CHEAL: 9.0
[7]; rate 0.0625 kg/ha
  Preemergence herbicidal rating CHEAL: 9.0
[7]; rate 0.1250 kg/ha
  Preemergence herbicidal rating CHEAL: 9.0
[7]; rate 0.2500 kg/ha
  Preemergence herbicidal rating CHEAL: 9.0
[7]; rate 0.5000 kg/ha
  Preemergence herbicidal rating CHEAL: 9.0
[8]; rate 0.0313 kg/ha
  Preemergence herbicidal rating GLXMAW: 0.0
[8]; rate 0.0625 kg/ha
  Preemergence herbicidal rating GLXMAW: 0.0
[8]; rate 0.1250 kg/ha
  Preemergence herbicidal rating GLXMAW: 0.0
[8]; rate 0.2500 kg/ha
  Preemergence herbicidal rating GLXMAW: 4.0
[8]; rate 0.5000 kg/ha
  Preemergence herbicidal rating GLXMAW: 4.0
[9]; rate 0.0156 kg/ha
  herbicidal rating ABUTH: 9.0
[9]; rate 0.0313 kg/ha
  herbicidal rating ABUTH: 9.0
[9]; rate 0.0625 kg/ha
  herbicidal rating ABUTH: 9.0
[9]; rate 0.1250 kg/ha
  herbicidal rating ABUTH: 9.0
[10]; rate 0.0313 kg/ha
  Preemergence herbicidal rating ECHCG: 0.0
[10]; rate 0.0625 kg/ha
  Preemergence herbicidal rating ECHCG: 0.0
[10]; rate 0.1250 kg/ha
  Preemergence herbicidal rating ECHCG: 0.0
[10]; rate 0.2500 kg/ha
  Preemergence herbicidal rating ECHCG: 0.0
[10]; rate 0.5000 kg/ha
  Preemergence herbicidal rating ECHCG: 0.0
[11]; rate 0.0156 kg/ha
  herbicidal rating SETVI: 0.0
[11]; rate 0.0313 kg/ha
  herbicidal rating SETVI: 1.0
[11]; rate 0.0625 kg/ha
  herbicidal rating SETVI: 7.0
[11]; rate 0.1250 kg/ha
  herbicidal rating SETVI: 9.0
[12]; rate 0.0156 kg/ha
  herbicidal rating IPOHE: 9.0
[12]; rate 0.0313 kg/ha
  herbicidal rating IPOHE: 9.0
[12]; rate 0.0625 kg/ha
  herbicidal rating IPOHE: 9.0
[12]; rate 0.1250 kg/ha
  herbicidal rating IPOHE: 9.0
[13]; rate 0.0156 kg/ha
  herbicidal rating CHEAL: 4.0
[13]; rate 0.0313 kg/ha
  herbicidal rating CHEAL: 4.0
[13]; rate 0.0625 kg/ha
  herbicidal rating CHEAL: 9.0
[13]; rate 0.1250 kg/ha
  herbicidal rating CHEAL: 9.0
[14]; rate 0.0156 kg/ha
  herbicidal rating ECHCG: 0.0
[14]; rate 0.0313 kg/ha
  herbicidal rating ECHCG: 0.0
[14]; rate 0.0625 kg/ha
  herbicidal rating ECHCG: 1.0
[14]; rate 0.1250 kg/ha
  herbicidal rating ECHCG: 3.0
[15]; rate 0.0156 kg/ha
  herbicidal rating ORYSAT: 0.5
[15]; rate 0.0313 kg/ha
  herbicidal rating ORYSAT: 0.5
[15]; rate 0.0625 kg/ha
  herbicidal rating ORYSAT: 0.5
[15]; rate 0.1250 kg/ha
  herbicidal rating ORYSAT: 2.5

From patent US20020137929A1, “1 - (3-heterocyclylphenyl) isothiourea, -isourea, -guanidine and -amidine herbicidal agents” (Intellectual Property Department, BASF Aktiengesellschaft, priority 1998, published 2002)
